Measured values reported in publication PMC10041525, “New Dual Inhibitors of Bacterial Topoisomerases with Broad-Spectrum Antibacterial Activity and In Vivo Efficacy against Vancomycin-Intermediate Staphylococcus aureus” (Journal of Medicinal Chemistry, 2023).
Where two headings read alike, the source gives them in different places.

Experiments:
[1] = test system: 100 A. baumannii strains (50 MDR, 50 non-MDR); experiment: MIC broth microdilution at IHMA Europe, panel of 100 strains; format: cell-based; details: for MIC / MIC50 / MIC90: Acinetobacter baumannii
[2] = test system: E. faecium (n = 13); experiment: MIC broth microdilution at IHMA Europe; format: cell-based; details: Enterococcus faecium, read-out: MIC
[3] = test system: Haemophilus influenzae (n = 14); experiment: MIC broth microdilution at IHMA Europe; format: cell-based, H. influenzae; details: Haemophilus influenzae, read-out: MIC
[4] = test system: E. faecalis ATCC 29212; design: method as in earlier work; details: QC range for E. faecalis ATCC 29212, ref CLSI; cited from earlier work
[5] = test system: S. pneumoniae ATCC 49619; experiment: IHMA QC MIC; format: cell-based
From the text: Supplement jm2c01905_si_004.xlsx, sheet "QC" | column: MIC [µg/mL]

For `C[C@H]1COc2c(N3CCN(C)CC3)c(F)cc3c(=O)c(C(=O)O)cn1c23.C[C@H]1COc2c(N3CCN(C)CC3)c(F)cc3c(=O)c(C(=O)O)cn1c23.O` [Levofloxacin, levofloxacin], the MIC ([1]; A. baumannii IHMA 2196914, South Africa 2020, MDR) was 16 µg/mL, the MIC ([1]; A. baumannii IHMA 2196959, South Africa 2020, MDR) was 4 µg/mL and the MIC ([1]; A. baumannii IHMA 2203763, Spain 2020, MDR) was greater than 16 µg/mL. It also gave an MIC ([1]; A. baumannii IHMA 2205144, Korea, South 2020, MDR) of 16 µg/mL, an MIC ([1]; A. baumannii IHMA 2206459, Taiwan 2020, MDR) of 16 µg/mL and an MIC ([1]; A. baumannii IHMA 2206507, Taiwan 2020, Non-MDR) of no more than 0.25 µg/mL. For the same molecule, the MIC ([1]; A. baumannii IHMA 2212575, Hungary 2020, Non-MDR) was no more than 0.25 µg/mL, the MIC ([1]; A. baumannii IHMA 2215307, Hong Kong 2020, Non-MDR) was no more than 0.25 µg/mL and the MIC ([1]; A. baumannii IHMA 2216586, Taiwan 2020, MDR) was 8 µg/mL. It also gave an MIC ([1]; A. baumannii IHMA 2223200, Colombia 2020, Non-MDR) of no more than 0.25 µg/mL, an MIC ([1]; A. baumannii IHMA 2224017, Panama 2020, MDR) of 8 µg/mL and an MIC ([1]; A. baumannii IHMA 2224303, Panama 2020, Non-MDR) of no more than 0.25 µg/mL. It also gave an MIC ([1]; A. baumannii IHMA 2231797, Greece 2020, MDR) of 8 µg/mL, an MIC ([1]; A. baumannii IHMA 2233099, Guatemala 2020, MDR) of 8 µg/mL and an MIC ([1]; A. baumannii IHMA 2233430, Kazakhstan 2020, MDR) greater than 16 µg/mL. It also gave an MIC ([1]; A. baumannii IHMA 2233548, Kazakhstan 2020, Non-MDR) of no more than 0.25 µg/mL, an MIC ([1]; A. baumannii IHMA 2238964, Thailand 2020, MDR) of 4 µg/mL and an MIC ([1]; A. baumannii IHMA 2239052, Thailand 2020, Non-MDR) of no more than 0.25 µg/mL. The MIC ([1]; A. baumannii IHMA 2261047, Belgium 2020, MDR) was 8 µg/mL, the MIC ([1]; A. baumannii IHMA 2261633, Canada 2020, Non-MDR) was no more than 0.25 µg/mL and the MIC ([1]; A. baumannii IHMA 2274234, South Africa 2020, MDR) was 8 µg/mL. It also gave an MIC ([1]; A. baumannii IHMA 2274364, South Africa 2020, MDR) of 16 µg/mL, an MIC ([1]; A. baumannii IHMA 2275237, Chile 2020, Non-MDR) of no more than 0.25 µg/mL and an MIC ([1]; A. baumannii IHMA 2275751, Jordan 2020, MDR) of 8 µg/mL. It also gave an MIC ([1]; A. baumannii IHMA 2316205, United States 2020, MDR) of 16 µg/mL, an MIC50 ([1]; MDR n = 50) of 8 µg/mL and an MIC90 ([1]; MDR n = 50) of 16 µg/mL. The MIC50 ([1]; all isolates n = 100) was 0.5 µg/mL, the MIC90 ([1]; all isolates n = 100) was 16 µg/mL and the MIC50 ([1]; non-MDR n = 50) was no more than 0.25 µg/mL. It also gave an MIC90 ([1]; non-MDR n = 50) of no more than 0.25 µg/mL, an MIC ([1]; read-out: MAX (maximum MIC), non-MDR n = 50) of 0.5 µg/mL and an MIC ([1]; read-out: MAX (maximum MIC; all strains inhibited), MDR n = 50) greater than 16 µg/mL. It also gave an MIC ([1]; read-out: MAX (maximum MIC; all strains inhibited), all isolates n = 100) greater than 16 µg/mL, an MIC ([1]; read-out: MIN (minimum MIC), MDR n = 50) of 4 µg/mL and an MIC ([1]; read-out: MIN (minimum MIC), all isolates n = 100) of no more than 0.25 µg/mL. For the same molecule, the MIC ([1]; read-out: MIN (minimum MIC), non-MDR n = 50) was no more than 0.25 µg/mL, the “Percentage I” value ([1]; MDR n = 50) was 12% and the “Percentage R” value ([1]; MDR n = 50) was 88%. The “Percentage S” value ([1]; MDR n = 50) was 0%, the “Percentage I” value ([1]; all n = 100, CLSI breakpoints) was 6% and the “Percentage R” value ([1]; all n = 100, CLSI breakpoints) was 44%. For the same molecule, the “Percentage S” value ([1]; all n = 100, CLSI breakpoints) was 50%, the “Percentage I” value ([1]; non-MDR n = 50) was 0% and the “Percentage R” value ([1]; non-MDR n = 50) was 0%. The “Percentage S” value ([1]; non-MDR n = 50) was 100%, the MIC ([2]; E. faecium IHMA N° 1764866) was greater than 32 µg/mL and the MIC ([2]; E. faecium IHMA N° 1765436) was greater than 32 µg/mL. It also gave an MIC ([2]; E. faecium IHMA N° 1765746) greater than 32 µg/mL, an MIC ([2]; E. faecium IHMA N° 1893573) greater than 32 µg/mL and an MIC ([2]; E. faecium IHMA N° 1893846) greater than 32 µg/mL. The MIC ([2]; E. faecium IHMA N° 1893942) was greater than 32 µg/mL, the MIC ([2]; E. faecium IHMA N° 1894055) was greater than 32 µg/mL and the MIC ([2]; E. faecium IHMA N° 1897027) was greater than 32 µg/mL. It also gave an MIC ([2]; E. faecium IHMA N° 1897101) greater than 32 µg/mL, an MIC ([2]; E. faecium IHMA N° 1904592) of 32 µg/mL and an MIC ([2]; E. faecium IHMA N° 2075051) greater than 32 µg/mL. For the same molecule, the MIC ([2]; E. faecium IHMA N° 2077718) was greater than 32 µg/mL, the MIC ([2]; E. faecium IHMA N° 2083787) was 32 µg/mL and the MIC ([3]; H. influenzae IHMA N° 1227715) was 0.015 µg/mL. The MIC ([3]; H. influenzae IHMA N° 1241620) was no more than 0.004 µg/mL, the MIC ([3]; H. influenzae IHMA N° 1244149) was 0.015 µg/mL and the MIC ([3]; H. influenzae IHMA N° 1249803) was 0.015 µg/mL. It also gave an MIC ([3]; H. influenzae IHMA N° 1254355) of 0.12 µg/mL, an MIC ([3]; H. influenzae IHMA N° 1258580) of 0.015 µg/mL and an MIC ([3]; H. influenzae IHMA N° 1262734) of 0.015 µg/mL. It also gave an MIC ([3]; H. influenzae IHMA N° 1272723) of 0.015 µg/mL, an MIC ([3]; H. influenzae IHMA N° 1286846) of 0.015 µg/mL and an MIC ([3]; H. influenzae IHMA N° 1337530) of 0.015 µg/mL. The MIC ([3]; H. influenzae IHMA N° 1440085) was 0.015 µg/mL, the MIC ([3]; H. influenzae IHMA N° 1479509) was 0.0015 µg/mL and the MIC ([3]; H. influenzae IHMA N° 1952952) was 0.015 µg/mL. For the same molecule, the MIC ([3]; H. influenzae IHMA N° 2047461) was 0.008 µg/mL, the “MIC, CLSI Range” value [4] was 0,25 - 2 µg/mL and the MIC ([5]; QC strain S. pneumoniae ATCC 49619, test date 2021-11-26) was 0.5 µg/mL. The MIC ([5]; Streptococcus pneumoniae, ATCC49619) was 0.5 µg/mL.
